Source: ChEMBL document CHEMBL3870314, “Design, synthesis, anticancer, antimicrobial activities and molecular docking studies of theophylline containing acetylenes and theophylline containing 1,2,3-triazoles with variant nucleoside derivatives” (Eur J Med Chem, 2016)
Converted amounts (≈) assume the structure as drawn.

Assays:
Bacillus cereus = assay: Antimicrobial activity against Bacillus cereus ATCC 10876 incubated overnight by two-fold serial dilution method; type: functional
Staphylococcus aureus = assay: Antimicrobial activity against Staphylococcus aureus ATCC 25923 incubated overnight by two-fold serial dilution method; type: functional
[1] = Cytotoxicity against human A375 cells after 48 hrs by MTT assay; type: functional, cell-based; settings: A-375, 48 h
[2] = Cytotoxicity against human HT-29 cells after 48 hrs by MTT assay; type: functional, cell-based; settings: HT-29, 48 h
[3] = Cytotoxicity against human MCF7 cells after 48 hrs by MTT assay; type: functional, cell-based; settings: MCF7, 48 h
[4] = Cytotoxicity against human A549 cells after 48 hrs by MTT assay; type: functional, cell-based; settings: A549, 48 h
Pseudomonas aeruginosa = assay: Antimicrobial activity against Pseudomonas aeruginosa ATCC 10145 incubated overnight by two-fold serial dilution method; type: functional

Row | SMILES | MIC (Bacillus cereus) [µg/mL] | MIC (Staphylococcus aureus) [µg/mL] | MIC (Pseudomonas aeruginosa) [µg/mL] | IC50 [1] [µM] | IC50 [2] [µM] | IC50 [3] [µM] | IC50 [4] [µM]
1 | Cn1c(=O)c2c(ncn2CC(=O)NCc2cn(CC3OC(n4ccc(=O)[nH]c4=O)C4OC(C)(C)OC34)nn2)n(C)c1=O (stereo unspecified) | 0.125 (≈ 0.214 µM) | 0.0312 (≈ 0.0535 µM) | 0.125 (≈ 0.214 µM) | 58.2 | 58.2 | 2.14 | 53.9
2 | Cn1c(=O)c2c(ncn2CC(=O)OCCc2cn(CC3OC(n4ccc(=O)[nH]c4=O)C4OC(C)(C)OC34)nn2)n(C)c1=O (stereo unspecified) | – | – | – | 54.2 | 100 | 2.4 | 7.39
3 | C#CCCCn1cnc2c1c(=O)n(C)c(=O)n2C | 0.125 (≈ 0.508 µM) | 0.0312 (≈ 0.127 µM) | 0.125 (≈ 0.508 µM) | 156 | 160 | 34.2 | 55.4
4 | CCn1c(=O)ccn(C2OC(Cn3cc(COC(=O)CNC(=O)Cn4cnc5c4c(=O)n(C)c(=O)n5C)nn3)C(OC)C2OC)c1=O (stereo unspecified) | – | – | – | 77.4 | 74.3 | 59.8 | 52
5 | O=C(O)c1cn(C2CC2)c2cc(N3CCNCC3)c(F)cc2c1=O [CIPROFLOXACIN] | 0.0156 (≈ 0.0471 µM) | 0.0312 (≈ 0.0943 µM) | 0.0625 (≈ 0.189 µM) | – | – | – | –
6 | COc1ccc(/C=C\c2cc(OC)c(OC)c(OC)c2)cc1O [COMBRETASTATIN A4] | – | – | – | 0.21 | 0.93 | 0.18 | 0.11
7 | C#CCCCOC(=O)Cn1cnc2c1c(=O)n(C)c(=O)n2C | 0.0625 (≈ 0.205 µM) | 0.5 (≈ 1.64 µM) | 0.0625 (≈ 0.205 µM) | 158 | 36.6 | 162 | 56.8
8 | C#CCNC(=O)Cn1cnc2c1c(=O)n(C)c(=O)n2C | 0.0625 (≈ 0.227 µM) | 0.0156 (≈ 0.0567 µM) | 0.0625 (≈ 0.227 µM) | 28.2 | 19.4 | 157 | 114
9 | C#CCCOC(=O)Cn1cnc2c1c(=O)n(C)c(=O)n2C | 0.125 (≈ 0.431 µM) | 0.0625 (≈ 0.215 µM) | 0.0625 (≈ 0.215 µM) | 159 | 152 | 56.3 | 104
10 | CCn1c(=O)ccn(C2OC(Cn3cc(COC(=O)Cn4cnc5c4c(=O)n(C)c(=O)n5C)nn3)C(OC)C2OC)c1=O (stereo unspecified) | – | – | – | 62.8 | 58.8 | 2.67 | 56.8
11 | Cn1c(=O)c2c(ncn2CC(=O)OCc2cn(CC3OC(n4ccc(=O)[nH]c4=O)C4OC(C)(C)OC34)nn2)n(C)c1=O (stereo unspecified) | 0.125 (≈ 0.213 µM) | 0.0312 (≈ 0.0534 µM) | 0.0625 (≈ 0.107 µM) | 56.2 | 6.2 | 23.6 | 3.59
12 | C#CCOC(=O)Cn1cnc2c1c(=O)n(C)c(=O)n2C | 0.125 (≈ 0.452 µM) | 0.0312 (≈ 0.113 µM) | 0.125 (≈ 0.452 µM) | 33.6 | 68.3 | 33.9 | 156
13 | C#CCn1cnc2c1c(=O)n(C)c(=O)n2C | 0.125 (≈ 0.573 µM) | 0.0625 (≈ 0.286 µM) | 0.125 (≈ 0.573 µM) | 153 | 158 | 103 | 152
14 | CCn1c(=O)ccn(C2OC(Cn3cc(COC(=O)CNC(=O)Cn4cnc5c4c(=O)n(C)c(=O)n5C)nn3)C(O)C2O)c1=O (stereo unspecified) | 0.125 (≈ 0.198 µM) | 0.0625 (≈ 0.0991 µM) | 0.0625 (≈ 0.0991 µM) | 5.81 | 2.9 | 2.1 | 3.57

The next lines start with results.

Row | MIC (Bacillus cereus) [µg/mL] | MIC (Staphylococcus aureus) [µg/mL] | MIC (Pseudomonas aeruginosa) [µg/mL] | SMILES | IC50 [1] [µM] | IC50 [2] [µM] | IC50 [3] [µM] | IC50 [4] [µM]
15 | 0.0156 (≈ 0.0243 µM) | 0.0312 (≈ 0.0486 µM) | 0.125 (≈ 0.195 µM) | Cn1c(=O)c2c(ncn2CC(=O)NCC(=O)OCc2cn(CC3OC(n4ccc(=O)[nH]c4=O)C4OC(C)(C)OC34)nn2)n(C)c1=O (stereo unspecified) | 59.8 | 59.3 | 12.6 | 5.67
16 | 0.0312 (≈ 0.0474 µM) | 0.0312 (≈ 0.0474 µM) | 0.0625 (≈ 0.0949 µM) | CCn1c(=O)ccn(C2OC(Cn3cc(COC(=O)C(C)NC(=O)C(C)n4cnc5c4c(=O)n(C)c(=O)n5C)nn3)C(O)C2O)c1=O (stereo unspecified) | 52.3 | 2.71 | 3.8 | 1.56
17 | 0.0625 (≈ 0.106 µM) | 0.0156 (≈ 0.0266 µM) | 0.0312 (≈ 0.0532 µM) | CCn1c(=O)ccn(C2OC(Cn3cc(COC(=O)C(C)n4cnc5c4c(=O)n(C)c(=O)n5C)nn3)C(O)C2O)c1=O (stereo unspecified) | 68.4 | 62.8 | 2.13 | 2.89
18 | 0.0312 (≈ 0.0509 µM) | 0.125 (≈ 0.204 µM) | 0.0312 (≈ 0.0509 µM) | Cn1c(=O)c2c(ncn2CC(=O)OCCCc2cn(CC3OC(n4ccc(=O)[nH]c4=O)C4OC(C)(C)OC34)nn2)n(C)c1=O (stereo unspecified) | 8.23 | 12.4 | 30.6 | 14.3
19 | 0.0625 (≈ 0.109 µM) | 0.0625 (≈ 0.109 µM) | 0.0625 (≈ 0.109 µM) | CCn1c(=O)ccn(C2OC(Cn3cc(COC(=O)Cn4cnc5c4c(=O)n(C)c(=O)n5C)nn3)C(O)C2O)c1=O (stereo unspecified) | 4.89 | 2.19 | 1.89 | 2.56
20 | 0.0156 (≈ 0.0281 µM) | 0.0625 (≈ 0.113 µM) | 0.0625 (≈ 0.113 µM) | Cn1c(=O)c2c(ncn2CCCc2cn(CC3OC(n4ccc(=O)[nH]c4=O)C4OC(C)(C)OC34)nn2)n(C)c1=O (stereo unspecified) | 9.4 | 7.45 | 34.2 | 15.4
21 | 0.0312 (≈ 0.0592 µM) | 0.5 (≈ 0.948 µM) | 0.0312 (≈ 0.0592 µM) | Cn1c(=O)c2c(ncn2Cc2cn(CC3OC(n4ccc(=O)[nH]c4=O)C4OC(C)(C)OC34)nn2)n(C)c1=O (stereo unspecified) | 54.2 | 58.2 | 10.4 | 8.59
